Experimental data taken from PubChem BioAssay AID1745844 (Carcinogenic Potency Database (CPDB), 2022).
Active and inactive are the calls of the source. How the calls were made is not given here.

Tested on: rodent lifetime carcinogenesis bioassay, tumor incidence TD50
Test: chronic cancer bioassays in animals – CPDB, compiled studies (AID 1745844)

Structure (SMILES): [Cl][Cd][Cl]
- carcinogen call (hamster, strain Syrian Golden, females, inhaled, site: lung, lesion: one or several types, types not named, dosed 60 weeks, study length 76 weeks): negative (inactive)
- carcinogen call (hamster, strain Syrian Golden, females, inhaled, site: lung, lesion: one or several types, types not named, dosed 64 weeks, study length 76 weeks): negative (inactive)
- carcinogen call (hamster, strain Syrian Golden, males, inhaled, site: lung, lesion: one or several types, types not named, dosed 60 weeks, study length 102 weeks): negative (inactive)
- carcinogen call (hamster, strain Syrian Golden, males, inhaled, site: lung, lesion: one or several types, types not named, dosed 64 weeks, study length 113 weeks): negative (inactive)
- carcinogen call (mouse, strain NMRI, females, inhaled, site: lung, lesion: adenocarcinoma, dosed 42 weeks, study length 82 weeks): negative (inactive)
- carcinogen call (mouse, strain NMRI, females, inhaled, site: lung, lesion: adenocarcinoma, dosed 69 weeks, study length 89 weeks): negative (inactive)
- carcinogen call (mouse, strain NMRI, females, inhaled, site: lung, lesion: adenoma, dosed 42 weeks, study length 82 weeks): negative (inactive)
- carcinogen call (mouse, strain NMRI, females, inhaled, site: lung, lesion: adenoma, dosed 69 weeks, study length 89 weeks): negative (inactive)
- carcinogen call (mouse, strain NMRI, females, inhaled, site: lung, lesion: several types, types named in the paper, dosed 42 weeks, study length 82 weeks): negative (inactive)
- carcinogen call (mouse, strain NMRI, females, inhaled, site: lung, lesion: several types, types named in the paper, dosed 69 weeks, study length 89 weeks): negative (inactive)
- carcinogen call (rat, strain BOR:WISW (Wistar), females, in feed, site: kidney, lesion: one or several types, types not named, dosed 72 weeks, study length 72 weeks): negative (inactive)
- carcinogen call (rat, strain BOR:WISW (Wistar), males, in feed, site: kidney, lesion: one or several types, types not named, dosed 72 weeks, study length 72 weeks): negative (inactive)
- TD50 (rat, strain NBL/Cr, males, in drinking water, site: adrenal gland, lesion: pheochromocytoma, benign/malignant, dosed 102 weeks, study length 102 weeks): 686 mg/kg/day
- TD50 (rat, strain NBL/Cr, males, in drinking water, site: kidney/pelvis, lesion: transitional-cell carcinoma, dosed 102 weeks, study length 102 weeks): 584 mg/kg/day
- TD50 (rat, strain NBL/Cr, males, in drinking water, site: kidney, lesion: lipoma, dosed 102 weeks, study length 102 weeks): 584 mg/kg/day
- TD50 (rat, strain NBL/Cr, males, in drinking water, site: kidney, lesion: malignant mesenchymal tumor, dosed 102 weeks, study length 102 weeks): 193 mg/kg/day
- TD50 (rat, strain NBL/Cr, males, in drinking water, site: kidney, lesion: several types, types named in the paper, dosed 102 weeks, study length 102 weeks): 114 mg/kg/day
- TD50 (rat, strain Wistar W.74, females, in feed, site: any site (literature study), lesion: benign tumor, dosed 104 weeks, study length 105 weeks): 44 mg/kg/day (inactive)
- TD50 (rat, strain Wistar W.74, females, in feed, site: any site (literature study), lesion: malignant tumor, dosed 104 weeks, study length 105 weeks): 124 mg/kg/day (inactive)
- TD50 (rat, strain Wistar W.74, females, in feed, site: any site (literature study), lesion: several types, types named in the paper, dosed 104 weeks, study length 105 weeks): 21.6 mg/kg/day (inactive)
- carcinogen call (rat, strain Wistar W.74, females, in feed, site: liver, lesion: hepatoma, dosed 104 weeks, study length 105 weeks): negative (inactive)
- TD50 (rat, strain Wistar W.74, males, in feed, site: adrenal gland, lesion: pheochromocytoma, dosed 104 weeks, study length 105 weeks): 1.33 mg/kg/day (inactive)
- carcinogen call (rat, strain Wistar W.74, males, in feed, site: any site (literature study), lesion: benign tumor, dosed 104 weeks, study length 105 weeks): negative (inactive)
- TD50 (rat, strain Wistar W.74, males, in feed, site: any site (literature study), lesion: malignant tumor, dosed 104 weeks, study length 105 weeks): 47.4 mg/kg/day (inactive)
- carcinogen call (rat, strain Wistar W.74, males, in feed, site: any site (literature study), lesion: several types, types named in the paper, dosed 104 weeks, study length 105 weeks): negative (inactive)
- carcinogen call (rat, strain Wistar W.74, males, in feed, site: liver, lesion: hepatoma, dosed 104 weeks, study length 105 weeks): negative (inactive)
- TD50 (rat, strain Wistar, females, inhaled, site: lung, lesion: adenocarcinoma, dosed 26 weeks, study length 126 weeks): 0.206 mg/kg/day
- TD50 (rat, strain Wistar, females, inhaled, site: lung, lesion: adenocarcinoma, dosed 78 weeks, study length 134 weeks): 0.0253 mg/kg/day
- TD50 (rat, strain Wistar, females, inhaled, site: lung, lesion: adenosquamous carcinoma, dosed 78 weeks, study length 134 weeks): 0.106 mg/kg/day
- TD50 (rat, strain Wistar, females, inhaled, site: lung, lesion: alveolar/bronchiolar adenoma, dosed 78 weeks, study length 134 weeks): 0.0495 mg/kg/day
- TD50 (rat, strain Wistar, females, inhaled, site: lung, lesion: several types, types named in the paper, dosed 26 weeks, study length 126 weeks): 0.0645 mg/kg/day
- TD50 (rat, strain Wistar, females, inhaled, site: lung, lesion: several types, types named in the paper, dosed 78 weeks, study length 134 weeks): 0.00971 mg/kg/day
- TD50 (rat, strain Wistar, females, inhaled, site: lung, lesion: squamous-cell tumor, dosed 26 weeks, study length 126 weeks): 0.0998 mg/kg/day
- carcinogen call (rat, strain Wistar, males, in feed, site: all sites, lesion: lymphocytic leukemia, dosed 77 weeks, study length 77 weeks): positive
- TD50 (rat, strain Wistar, males, in feed, site: prostate, lesion: adenoma, dosed 77 weeks, study length 77 weeks): 56.9 mg/kg/day
- TD50 (rat, strain Wistar, males, in feed, site: testis, lesion: interstitial-cell tumor, benign, dosed 77 weeks, study length 77 weeks): 31.6 mg/kg/day
- TD50 (rat, strain Wistar, males, inhaled, site: adrenal gland, lesion: pheochromocytoma, benign/malignant, dosed 78 weeks, study length 134 weeks): 0.591 mg/kg/day
- TD50 (rat, strain Wistar, males, inhaled, site: lung, lesion: adenocarcinoma, dosed 26 weeks, study length 130 weeks): 0.0294 mg/kg/day
- TD50 (rat, strain Wistar, males, inhaled, site: lung, lesion: adenocarcinoma, dosed 78 weeks, study length 130 weeks): 0.00924 mg/kg/day
- TD50 (rat, strain Wistar, males, inhaled, site: lung, lesion: adenocarcinoma, dosed 78 weeks, study length 134 weeks): 0.022 mg/kg/day
- TD50 (rat, strain Wistar, males, inhaled, site: lung, lesion: adenoma, dosed 78 weeks, study length 134 weeks): 0.563 mg/kg/day
- TD50 (rat, strain Wistar, males, inhaled, site: lung, lesion: adenosquamous carcinoma, dosed 78 weeks, study length 130 weeks): 0.165 mg/kg/day
- TD50 (rat, strain Wistar, males, inhaled, site: lung, lesion: alveolar/bronchiolar adenoma, dosed 26 weeks, study length 130 weeks): 0.0521 mg/kg/day
- TD50 (rat, strain Wistar, males, inhaled, site: lung, lesion: alveolar/bronchiolar adenoma, dosed 78 weeks, study length 130 weeks): 0.0804 mg/kg/day
- TD50 (rat, strain Wistar, males, inhaled, site: lung, lesion: carcinoma, dosed 78 weeks, study length 134 weeks): 0.0127 mg/kg/day
- TD50 (rat, strain Wistar, males, inhaled, site: lung, lesion: epidermoid carcinoma, dosed 78 weeks, study length 134 weeks): 0.0588 mg/kg/day
- TD50 (rat, strain Wistar, males, inhaled, site: lung, lesion: muco-epidermoid carcinoma, dosed 78 weeks, study length 134 weeks): 0.315 mg/kg/day
- TD50 (rat, strain Wistar, males, inhaled, site: lung, lesion: several types, types named in the paper, dosed 26 weeks, study length 130 weeks): 0.0106 mg/kg/day
- TD50 (rat, strain Wistar, males, inhaled, site: lung, lesion: several types, types named in the paper, dosed 78 weeks, study length 130 weeks): 0.00611 mg/kg/day
- TD50 (rat, strain Wistar, males, inhaled, site: lung, lesion: squamous-cell tumor, dosed 26 weeks, study length 130 weeks): 0.0521 mg/kg/day
